Data: US12528837B2, “Aryl substituted polymyxin derivatives” (priority 2018, dated 2026)

Tests used:
[1] = Renal toxicity in Cynomolgus monkey, iv infusion 7 days; format: in vivo
Method: In a separate experiment male monkeys (n=3) were dosed with PMB for the same period at 4 mg/kg/dose. In both experiments control animals were dosed 3 times per day with saline.
At the end of the 7 day period blood was sampled and the serum levels of blood urea nitrogen and creatinine determined as indicators of renal damage.
Kidneys were harvested at the end of the 7 day dosing period and examined microscopically.

A. baumannii NCTC13301 = assay: Neutropenic murine lung model; format: in vivo
Method: After rendering neutropenic (cyclophosphamide 200 mg/kg d-4, 150 mg/kg d-1), CD-1 mice (n=8) were inoculated intranasally with approx. 10^7 cfu per lung of A. baumannii NCTC13301. Mice were dosed SC with PMB sulphate (20 mg/kg) or appropriate doses of test compound (equivalent weight free base) at 2, 6 and 10 h post-infection. At 16 h post-infection mice were euthanised and lungs prepared for colony counts.
In each case the decrease observed with PMB in the same experiment is shown in parentheses: […]

[2] = Renal toxicity in mice, 25 mg/kg sc four doses at 8 hr intervals, biomarkers and histopathology; format: in vivo, mouse; settings: mice (n=6), sc 25 mg free base/kg
Method: After the fourth dose animals were transferred into individual metabolic cages and urine collected for 24 hours for determination of urinary biomarkers. After collecting urine mice were euthanised and the kidneys harvested for histopathology.

[3] = cynomolgus monkey, in vivo, 4 mg/kg

**Q.** For Polymyxin B [reference compound], which “Kidney microscopy: tubular degeneration” value ([1]; Cynomolgus monkey (n=3), 4 mg/kg/dose, 3 times per day, 7 days) is on record?
**A.** Its value is 2 showed mild tubular degeneration and 1 minimal.

**Q.** What about the “AUC0-8 hr, one dosing cycle on day 7” value [1, 3] of the same substance?
**A.** Its value is 117 µg·h/mL.

**Q.** And the “BUN elevation compared to control animals” value [1, 3]?
**A.** The value was 76%.

**Q.** And the “Log drop in cfu Compared to Vehicle Control” value (A. baumannii NCTC13301; CD-1 mice lung, SC 20 mg/kg at 2, 6, 10 h, counts at 16 h, PMB (20 mg/kg) in parentheses)?
**A.** The value was 0.

**Q.** What about the “Efficacy in the model (in words)” value (A. baumannii NCTC13301; neutropenic murine lung model, A. baumannii NCTC13301, 20 mg/kg SC (PMB: maximum tolerated dose)) of the same substance?
**A.** Its value is “not efficacious”.

**Q.** What about the “Kidney histopathology: signs of degeneration or regeneration” value [2] of the same substance?
**A.** Its value is “all 6 animals treated with PMB showed minimal tubular regeneration”.
